# Species on record: Rattus norvegicus
# Experiment: DrugMatrix - Regimen: Daily Repeat
# Format: toxicity, organism-based, Sprague-Dawley
# Parameters: regimen Daily Repeat, gender Male, age 6-8 weeks
# Conditions: in vivo, po, 350 mg/kg, route oral GAVAGE, dose level High, vehicle .5 % CMC; for ABSOLUTE BASOPHIL / ABSOLUTE EOSINOPHIL / ABSOLUTE LYMPHOCYTE / ABSOLUTE MONOCYTE / ABSOLUTE SEGMENTED NEUTROPHIL / BASOPHIL / EOSINOPHIL / ERYTHROCYTE COUNT / HEMATOCRIT / HEMOGLOBIN / LEUKOCYTE COUNT / LYMPHOCYTE / MEAN CORPUSCULAR HEMOGLOBIN / MEAN CORPUSCULAR HEMOGLOBIN CONCENTRATION / MEAN CORPUSCULAR VOLUME / MONOCYTE / NEUTROPHIL / NUCLEATED RED BLOOD CELLS / PLATELET COUNT: tissue Blood; for ALANINE AMINOTRANSFERASE / ALBUMIN / ALKALINE PHOSPHATASE / ASPARTATE AMINOTRANSFERASE / BLOOD UREA NITROGEN / CARBON DIOXIDE / CHLORIDE / CHOLESTEROL / CREATINE PHOSPHOKINASE / CREATININE / GLUCOSE / LACTATE DEHYDROGENASE / LIPASE / PHOSPHORUS / POTASSIUM / SODIUM / TOTAL BILIRUBIN / TOTAL PROTEIN / URIC ACID: tissue Plasma
smiles,measurement,setting,value
Cc1cccc(C)c1OCC(C)N (stereo unspecified) [MEXILETINE],ABSOLUTE BASOPHIL,"72 h, time 3 day",0 CELLS/uL
same,ABSOLUTE EOSINOPHIL,"72 h, time 3 day",77.33 CELLS/uL
same,ABSOLUTE LYMPHOCYTE,"72 h, time 3 day",8910.33 CELLS/uL
same,ABSOLUTE MONOCYTE,"72 h, time 3 day",236 CELLS/uL
same,ABSOLUTE SEGMENTED NEUTROPHIL,"72 h, time 3 day",643 CELLS/uL
same,BASOPHIL,"72 h, time 3 day",0%
same,EOSINOPHIL,"72 h, time 3 day",0.67%
same,ERYTHROCYTE COUNT,"72 h, time 3 day",6.04 x10E6/uL
same,HEMATOCRIT,"72 h, time 3 day",38.2%
same,HEMOGLOBIN,"72 h, time 3 day",14.37 G/DL
same,LEUKOCYTE COUNT,"72 h, time 3 day",9.87 x10E3/uL
same,LYMPHOCYTE,"72 h, time 3 day",90.33%
same,MEAN CORPUSCULAR HEMOGLOBIN,"72 h, time 3 day",23.87 pg
same,MEAN CORPUSCULAR HEMOGLOBIN CONCENTRATION,"72 h, time 3 day",37.63 G/DL
same,MEAN CORPUSCULAR VOLUME,"72 h, time 3 day",63.37 fL
same,MONOCYTE,"72 h, time 3 day",2.33%
same,NEUTROPHIL,"72 h, time 3 day",6.67%
same,NUCLEATED RED BLOOD CELLS,"72 h, time 3 day",0.33 /100WBC
same,PLATELET COUNT,"72 h, time 3 day",1205.33 x10E3/uL
same,ALANINE AMINOTRANSFERASE,"72 h, time 3 day",60.67 u/L
same,ALBUMIN,"72 h, time 3 day",5.13 G/DL
same,ALKALINE PHOSPHATASE,"72 h, time 3 day",464.67 u/L
same,ASPARTATE AMINOTRANSFERASE,"72 h, time 3 day",73.67 u/L
same,BLOOD UREA NITROGEN,"72 h, time 3 day",13 mg/dL
same,CARBON DIOXIDE,"72 h, time 3 day",27.33 mmol/L
same,CHLORIDE,"72 h, time 3 day",102 MEQ/L
same,CHOLESTEROL,"72 h, time 3 day",86 mg/dL
same,CREATINE PHOSPHOKINASE,"72 h, time 3 day",277.67 u/L
same,CREATININE,"72 h, time 3 day",0.21 mg/dL
same,GLUCOSE,"72 h, time 3 day",139.67 mg/dL
same,LACTATE DEHYDROGENASE,"72 h, time 3 day",118 u/L
same,LIPASE,"72 h, time 3 day",9 u/L
same,PHOSPHORUS,"72 h, time 3 day",10.8 mg/dL
same,POTASSIUM,"72 h, time 3 day",5.61 MEQ/L
same,SODIUM,"72 h, time 3 day",145.8 MEQ/L
same,TOTAL BILIRUBIN,"72 h, time 3 day",0.23 mg/dL
same,TOTAL PROTEIN,"72 h, time 3 day",7.07 G/DL
same,URIC ACID,"72 h, time 3 day",0.77 mg/dL
same,ABSOLUTE BASOPHIL,"120 h, time 5 day",0 CELLS/uL
same,ABSOLUTE EOSINOPHIL,"120 h, time 5 day",203 CELLS/uL
same,ABSOLUTE LYMPHOCYTE,"120 h, time 5 day",12514 CELLS/uL
same,ABSOLUTE MONOCYTE,"120 h, time 5 day",136 CELLS/uL
same,ABSOLUTE SEGMENTED NEUTROPHIL,"120 h, time 5 day",747 CELLS/uL
same,BASOPHIL,"120 h, time 5 day",0%
same,EOSINOPHIL,"120 h, time 5 day",1.5%
same,ERYTHROCYTE COUNT,"120 h, time 5 day",6.13 x10E6/uL
same,HEMATOCRIT,"120 h, time 5 day",38%
same,HEMOGLOBIN,"120 h, time 5 day",14.05 G/DL
same,LEUKOCYTE COUNT,"120 h, time 5 day",13.6 x10E3/uL
same,LYMPHOCYTE,"120 h, time 5 day",92%
same,MEAN CORPUSCULAR HEMOGLOBIN,"120 h, time 5 day",22.9 pg
same,MEAN CORPUSCULAR HEMOGLOBIN CONCENTRATION,"120 h, time 5 day",37 G/DL
same,MEAN CORPUSCULAR VOLUME,"120 h, time 5 day",62.05 fL
same,MONOCYTE,"120 h, time 5 day",1%
same,NEUTROPHIL,"120 h, time 5 day",5.5%
same,NUCLEATED RED BLOOD CELLS,"120 h, time 5 day",0 /100WBC
same,PLATELET COUNT,"120 h, time 5 day",1422.5 x10E3/uL
same,ALANINE AMINOTRANSFERASE,"120 h, time 5 day",55 u/L
same,ALBUMIN,"120 h, time 5 day",4.35 G/DL
same,ALKALINE PHOSPHATASE,"120 h, time 5 day",464 u/L
same,ASPARTATE AMINOTRANSFERASE,"120 h, time 5 day",93.5 u/L
same,BLOOD UREA NITROGEN,"120 h, time 5 day",15 mg/dL
same,CARBON DIOXIDE,"120 h, time 5 day",24 mmol/L
same,CHLORIDE,"120 h, time 5 day",105 MEQ/L
same,CHOLESTEROL,"120 h, time 5 day",59 mg/dL
same,CREATINE PHOSPHOKINASE,"120 h, time 5 day",283.5 u/L
same,CREATININE,"120 h, time 5 day",0.22 mg/dL
same,GLUCOSE,"120 h, time 5 day",182.5 mg/dL
same,LACTATE DEHYDROGENASE,"120 h, time 5 day",152 u/L
same,LIPASE,"120 h, time 5 day",8.5 u/L
same,PHOSPHORUS,"120 h, time 5 day",12.7 mg/dL
same,POTASSIUM,"120 h, time 5 day",5.83 MEQ/L
same,SODIUM,"120 h, time 5 day",145.35 MEQ/L
same,TOTAL BILIRUBIN,"120 h, time 5 day",0.2 mg/dL
same,TOTAL PROTEIN,"120 h, time 5 day",6.4 G/DL
same,URIC ACID,"120 h, time 5 day",2 mg/dL
